Experimental findings from patent US8637558B2 (Industry-Academic Cooperation Foundation, Chosun University, priority 2008, dated 2014) are described below.

The pIC50 is −log10 of the IC50, conventionally taken in molar units.

Structures are written as SMILES. pIC50: −log10 of the molar value.

In this assay the target is 15-PGDH (Homo sapiens (Human), UniProt P15428). The experiment in a line: Assay for the activities of 15-PGDH inhibitors (formation of NADH at 340 nm). Type of assay: biochemical. The conditions noted are these: purified 15-PGDH enzyme, 21 μM PGE2, 0.25 mM NAD+, pH 7.5; concentration inhibiting 50% of 15-PGDH activity. As for the experimental part: <1-1> Expression and Purification of 15-PGDH
Chain of 15-PGDH (P15428 whole entry): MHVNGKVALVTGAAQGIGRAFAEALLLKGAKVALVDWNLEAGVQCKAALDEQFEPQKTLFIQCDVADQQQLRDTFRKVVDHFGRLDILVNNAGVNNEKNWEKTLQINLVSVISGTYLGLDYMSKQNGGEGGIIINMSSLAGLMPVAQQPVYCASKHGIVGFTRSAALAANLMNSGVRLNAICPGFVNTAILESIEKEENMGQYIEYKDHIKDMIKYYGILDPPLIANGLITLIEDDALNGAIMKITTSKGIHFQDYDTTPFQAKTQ
A 15-PGDH cDNA plasmid containing BamHI and EcoRI sites of the pGES-2T expression vector was used to transform Escherichia coli BL-21 lysS in accordance with the ordinarily used in the art. The transformed cells were grown in 500 mL LB medium containing 50 μg/mL ampicillin at 37° C. while being stirred at 220 rpm until the OD600 reached 0.6. Isopropyl β-D-thiogalactoside (1 mM) was added and the cells were allowed to grow for 12 hours at 25° C. Then, the pellets were harvested by centrifugation at 4000×g for 30 minutes at 4° C. The cell pallets were resuspended in 20 mL cell lysis buffer (1×PBS buffer (pH 7.4) containing 1 mM EDTA and 0.1 mM DTT) and sonicated (14×10 s at 4° C.). The disrupted cells were centrifuged at 4000×g for 20 minutes at 4° C. The supernatant was loaded slowly on a glutathione-sepharose 4B column, which was equilibrated at 4° C. with a cell lysis buffer (1×PBS buffer (pH 7.4) containing 1 mM EDTA and 0.1 mM DTT). The column was washed with the lysis buffer until OD280 reached below 0.005. Then, 15-PGDH was eluted from the glutathione-sepharose 4B column at room temperature for 5 minutes by using the elution buffer (50 mM Tris-HCl (pH 8.0) containing 10 mM reduced glutathione, 1 mM EDTA and 0.1 mM DTT). The concentration and the purity of the purified enzyme were determined by SDS-PAGE.
<1-2> Assay for the Activities of 15-PGDH Inhibitors
The absorbance of the reaction mixture was recorded at 340 nm so that the activities of the derivatives according to the present invention as 15-PGDH inhibitors were determined from a standard curve prepared from the absorbance of various concentrations of NADH at 340 nm.
Molecule `O=C1NC(=O)/C(=C/c2cccc(OC3CCCCC3)c2Cl)S1` [Derivative 99, 5-(2-chloro-3-(cyclohexyloxy)benzylidene)thiazolidine-2,4-dione] had a pIC50 of 6.67. `O=C1NC(=O)/C(=C/c2cccc(OCCCCC3CCCCC3)c2Cl)S1` [Derivative 100, 5-(2-chloro-3-(cyclohexylbutoxy)benzylidene)thiazolidine-2,4-dione]: the pIC50 was 7.02. With `O=C1NC(=O)/C(=C/c2ccc(OCCc3cccs3)c(Cl)c2)S1` [Derivative 101, 5-(3-chloro-4-(2-(thiophen-2-yl)ethoxy)benzylidene)thiazolidine-2,4-dione] the figure was 7.08; with `COc1cc(/C=C2\SC(=O)NC2=O)ccc1OCCc1cccs1` [Derivative 102, 5-(3-methoxy-4-(2-(thiophen-2-yl)ethoxy)benzylidene)thiazolidine-2,4-dione], 6.17; with `COc1ccc(/C=C2\SC(=O)NC2=O)cc1OCCc1cccs1` [Derivative 103, 5-(4-methoxy-3-(2-(thiophen-2-yl)ethoxy)benzylidene)thiazolidine-2,4-dione], 5.78. Molecule `O=C1NC(=O)/C(=C/c2ccc(OCCc3ccccn3)cc2Cl)S1` [Derivative 104] had a pIC50 of 5.05. For the molecule `O=C1NC(=O)/C(=C/c2cccc(OCCC3CCCC3)c2Cl)S1` [Derivative 107, 5-[2-chloro-3-(2-cyclopentylethoxy)benzylidene]-1,3-thiazolidine-2,4-dione], the pIC50 is 6.81. On to `O=C1NC(=O)/C(=C/c2ccc(OCCC3CCCC3)c(Cl)c2)S1` [Derivative 108, 5-[3-chloro-4-(2-cyclopentylethoxy)benzylidene]-1,3-thiazolidine-2,4-dione], for which the negative-log IC50 (pIC50) was 7.00. The pIC50 values of the last two molecules are within 0.2 log units of each other. `O=C1NC(=O)/C(=C/c2cccc(OCc3ccc([N+](=O)[O-])cc3)c2Cl)S1` [Derivative 109, 5-(2-chloro-3-(4-nitrobenzyloxy)benzylidene)thiazolidine-2,4-dione] gave a negative logarithm of the IC50 (pIC50) of 4.93. `O=C1NC(=O)/C(=C/c2cccc(OCCOC3CCCCC3)c2Cl)S1` [Derivative 110, 5-{2-chloro-3-[2-(cyclohexyloxy)ethoxy]benzylidene}-1,3-thiazolidine-2,4-dione] showed a pIC50 of 6.63. `O=C1NC(=O)/C(=C/c2ccc(OCC3CCC(C(=O)O)CC3)cc2)S1` (centres unmarked) [Derivative 111, 4-({4-[(Z)-(2,4-dioxo-1,3-thiazolidin-5-ylidene)methyl]phenoxy}methyl)cyclohexane carboxylic acid] gave a pIC50 of 5.03. Against the preceding molecule, the pIC50 is 1.60 log units lower. `O=C1NC(=O)C(Cc2ccc(OCCC3CCCCC3)cc2)S1` (centres unmarked) [Derivative 113, 5-(4-(2-cyclohexylethoxy)benzyl)thiazolidine-2,4-dione] had a negative-log IC50 (pIC50) of 6.01. With `O=C1NC(=O)C(Cc2ccc(OCC3CCCCC3)cc2)S1` (centres unmarked) [Derivative 114, 5-(4-(cyclohexylmethoxy)benzyl)thiazolidine-2,4-dione], the pIC50 is 5.39. `O=C1NC(=O)C(Cc2ccc(OCC3CCCC3)cc2)S1` (centres unmarked) [Derivative 115, 5-(4-(cyclopentylmethoxy)benzyl)thiazolidine-2,4-dione]: the pIC50 was 6.07. In the case of `O=C1NC(=O)C(Cc2ccc(OCc3ccccc3)cc2)S1` (centres unmarked) [Derivative 116, 5-(4-(benzyloxy)benzyl)thiazolidine-2,4-dione], the pIC50 was 5.28. Take `O=C1NC(=O)C(Cc2ccc(OCCC3CCCC3)cc2)S1` (centres unmarked) [Derivative 118, 5-(4-(2-cyclopentylethoxy)benzyl)thiazolidine-2,4-dione]: the pIC50 was 5.66. In the case of `O=C1NC(=O)C(Cc2ccc(OCCN3CCS(=O)(=O)CC3)cc2)S1` (centres unmarked) [Derivative 119, 5-(4-(2-thiomorpholine-1,1-dioxideethoxy)benzyl)-2,4-thiazolidinedione], the pIC50 is 5.28.

Take `O=C1NC(=O)C(Cc2ccc(OCCC3CCCCC3)c(Cl)c2)S1` (centres unmarked) [Derivative 120, 5-(3-chloro-4-(2-cyclohexylethoxy)benzyl)thiazolidine-2,4-dione]: the pIC50 was 6.76. On to `Cc1cc(CC2SC(=O)NC2=O)ccc1OCCC1CCCCC1` (centres unmarked) [Derivative 121, 5-(4-(2-cyclohexylethoxy)-3-methylbenzyl)thiazolidine-2,4-dione], for which the pIC50 was 6.40. With `O=C1NC(=O)C(Cc2ccc(OCCCC3CCCCC3)c(Cl)c2)S1` (centres unmarked) [Derivative 122, 5-(3-chloro-4-(cyclohexylpropoxy)benzyl)thiazolidine-2,4-dione], the pIC50 was 6.85. As to `O=C1NC(=O)C(Cc2ccc(OCC3CCCC3)cc2)S1` (centres unmarked) [Derivative 123, 5-(4-(cyclopentylmethoxy)benzyl)thiazolidine-2,4-dione], the pIC50 is 6.69. This pIC50 and that of the molecule before are within 0.2 log units of each other.

Take `O=C1NC(=O)C(Cc2ccc(OCc3ccccc3)cc2)S1` (centres unmarked) [Derivative 124, 5-(4-(benzyloxy)benzyl)thiazolidine-2,4-dione]: the pIC50 was 5.90. As to `O=C1NC(=O)C(Cc2ccc(OCCN3CCS(=O)(=O)CC3)cc2)S1` (centres unmarked) [Derivative 126, 5-(4-(2-thiomorpholine-1,1-Dioxideethoxy)benzyl)-2,4-thiazolidinedione], the pIC50 was 5.86.

The molecule `O=C1NC(=O)C(Cc2ccc(OCCC3CCCCC3)cc2Cl)S1` (centres unmarked) [Derivative 127, 5-(2-chloro-4-(2-cyclohexylethoxy)benzyl)thiazolidine-2,4-dione] had a pIC50 of 6.80. Regarding `O=C1NC(=O)C(Cc2ccc(OCc3ccc(-c4ccccc4)cc3)cc2)S1` (centres unmarked) [Derivative 129, 5-(4-(biphenyl-4-ylmethoxy)benzyl)thiazolidine-2,4-dione], the pIC50 was 5.97. In the case of `O=C1NC(=O)C(Cc2ccc(OCCC3CCCC3)cc2)S1` (centres unmarked) [Derivative 130, 5-(4-(2-cyclopentylethoxy)benzyl)thiazolidine-2,4-dione], the pIC50 is 6.11.
